Like-named read-outs stand apart in the source and are kept apart here. Non-standard residues stand in square brackets, D forms with d. Residues, ends and D or L forms follow the SMILES beside them. Phg = N[C@H](C(=O)O)c1ccccc1
Tests used:
[1] = cited from earlier work; for sweetness intensity: background art values; for taste: taste in words, background art
[2] = Sweetness intensity relative to sucrose, taste panel; format: in vivo, Male subjects; settings: based on informal panel testing
Description: The sweetness intensity of the esters and amides of the present invention relative to sucrose can be determined according to the following procedure:
Male subjects are chosen at random from a group of about 20 persons who have previously been selected on the basis of proven tasting acuity, i.e., persons who could.easily recognize the four basic tastes (sweet, sour, bitter and salty) and who are adept at quantifying their own physiological response numerically. The subjects are asked to taste and expectorate about 10 ml of a test sample (temperature of about 22°C) having dissolved therein the ester of amide. […] Sweetness intensity of the test sample is recorded by the subject making a mark on the linear scale at a point they consider equal in sweetness among the standard samples; interpolation between standards is encouraged. After completion of the panel, a five point numeric scale is superimposed on the linear scales to obtain numerical data; data is averaged and recorded to.the nearest 0.25 unit..Equivalent sucrose sweetness is determined by referring to graphs of (w/v) sucrose concentration in the standard samples versus a linear numeric scale.
Sweetness intensity is calculated by dividing the concentration (w/v) of perceived sweetness by the concentration (w/v) of the ester or amide required to produce that sweetness. […]

[3] = carbonated beverages; background statement; cited from earlier work

Structure (SMILES)	sweetness intensity [1]	also measured
C[C@@H](NC(=O)[C@@H](N)CC(=O)O)C(=O)NC1C(C)(C)S(=O)(=O)C1(C)C	1000 times that of sucrose	–
CC12CCC(O1)C(C)(C)C2OC(=O)C(NC(=O)C(N)CC(=O)O)c1ccccc1 (single isomer, unassigned) [Example 2, alpha-L-Aspartyl-D-phenylglycine-alpha-7-oxa-fenchyl ester]	–	sweetness intensity [2]: approximately 1000 X
C[C@@H](NC(=O)[C@@H](N)CC(=O)O)C(=O)NC1C(C)(C)SC1(C)C [2,2,4,4-tetramethylthietan-3-yl]	2000 times that of sucrose	–
CC1CCC(C)C1NC(=O)[C@@H](C)NC(=O)[C@@H](N)CC(=O)O (stereo partly drawn) [2,5-dimethylcyclopentyl]	520 times that of sucrose	–
CC1CCCC(C)C1NC(=O)[C@@H](C)NC(=O)[C@@H](N)CC(=O)O (stereo partly drawn) [2,6-dimethylcyclohexyl]	600 times that of sucrose	–
O=C1NS(=O)(=O)c2ccccc21 [Saccharin]	about 300 times that of sucrose	taste [1]: undesirable lingering bitter aftertaste
COC(=O)[C@H](Cc1ccccc1)NC(=O)[C@@H](N)CC(=O)O [aspartame, a/pha-L-aspartyl-L-phenylalanine lower alkyl esters, in particular the methyl ester known as aspartame] (H-Asp-Phe-OMe)	150-200 times that of sucrose	hydrolytic stability [3]: hydrolytically unstable in most carbonated beverages
C[C@@H](NC(=O)[C@@H](N)CC(=O)O)C(=O)NC(C1CC1)C1CC1 [dicyclopropylcarbinyl]	1200 times that of sucrose	–
C[C@@H](NC(=O)[C@@H](N)CC(=O)O)C(=O)NC1C2(C)CCC(C2)C1(C)C (stereo partly drawn) [fenchyl]	320 times that of sucrose	–
COC(=O)[C@@H](Cc1ccccc1)NC(=O)[C@@H](N)CC(=O)O [methyl ester of L-aspartyl-D-phenylalanine] (H-Asp-[dF]-OMe)	–	taste [1]: bitter
COC(=O)[C@@H](NC(=O)[C@@H](N)CC(=O)O)c1ccccc1 [methyl ester of L-aspartyl-L-phenylglycine] (H-Asp-[Phg]-OMe)	100-1000 times that of sucrose	taste [1]: quite sweet
COC(=O)C(NC(=O)[C@@H](N)CC(=O)O)C(=O)OC1C2(C)CCC(C2)C1(C)C (stereo partly drawn) [methyl]	–	sweetness intensity ([1]; listed as R^1a is methyl ester group, R^2a is fenchyl group): 22,200-33,200 times that of sucrose
